“And” between values parts separate entries of the source, which are not always exact repeats. Identical values can stand only once. The source made the active and inactive calls.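 The calls were made as follows: active = EC50 below 10 microM from an accepted curve fit, fit percent over 10, EC50 error under a fifth; inactive = the rest.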

System in the first assay: not listed separately
As to the kind of experiment: reduction of age-related superoxide, S. cerevisiae – additional hits, confirmation, dose response (AID 504927). As to conditions: S. cerevisiae aged culture, superoxide DHE fluorescence, 7 d; at 33.1 µM (top of the series).
On to `COc1ccc2c(c1)c1nnc(SC)nc1n2C`, for which the percent response (superoxide), lower = inhibition was 54.2% (inactive). Still for that read-out and setting: under `C#C[C@]1(O)[C@H](O)CC2C3CC[C@H]4C[C@@H](O)CC[C@]4(C)C3CC[C@@]21C` (stereo partly drawn) stands 117% (inactive). The same measure, in the same setting: under `COc1ccc2cc(C3CC(c4ccco4)=NN3S(=O)(=O)c3ccccc3)c(Cl)nc2c1` (stereo not drawn) stands 110% (inactive); under `CNC(=O)c1cccc2nc3ccccc3nc12`, 52% (inactive); under `CC(C)(C)Nc1ncnc2c1cnn2-c1ccccc1`, 110% (inactive). Still for that read-out and setting: in the case of `Cn1c(O)c(C(=Nc2ccc(F)cc2)c2ccccc2Cl)c(=O)n(C)c1=O` it was 113% (inactive). With `O=c1[nH]c(O)c(C=Nc2ccc(F)c(Cl)c2)c(=O)[nH]1`, the percent response (superoxide), lower = inhibition was 97.1% (inactive). In the case of `O=C(/C=C/c1ccccc1)NC(=S)NNC(=O)Cc1cccs1`, the percent response (superoxide), lower = inhibition was 78.9% (inactive).

For `NC(=O)CSc1nnc(-c2ccc([N+](=O)[O-])cc2)o1`, the percent response (superoxide), lower = inhibition is 99.1% (inactive). Regarding `O=C(Nc1ccc2nc3ccccc3nc2c1)c1ccc(Br)cc1`, the percent response (superoxide), lower = inhibition was 104% (inactive). As for `CC(C)OC(=O)CSc1nnc(-c2ccc(Cl)cc2Cl)o1`, the percent response (superoxide), lower = inhibition is 128% (inactive). For `N#CC(c1nc2ccccc2nc1N1CCCC1)S(=O)(=O)c1ccccc1` (stereo not drawn), the percent response (superoxide), lower = inhibition is 128% (inactive). With `COc1ccc2nc3ccccc3[n+]([O-])c2c1`, the percent response (superoxide), lower = inhibition is 107% (inactive).

For `N#CCc1nn(-c2ccccc2)c2ncnc(N)c12`, the percent response (superoxide), lower = inhibition was 95.5% (inactive).

In the case of `c1ccc2nc3ccccc3nc2c1`, the percent response (superoxide), lower = inhibition is 88.6% (inactive). As to `CC(C)CSc1nnc2c3ccccc3n(C)c2n1`, the percent response (superoxide), lower = inhibition is 105% (inactive).

In the case of `CCCCCNC(=O)C(=O)C1C(=O)Nc2ccccc21` (stereo not drawn), the percent response (superoxide), lower = inhibition was 86.1% (inactive). On the same count and under the same terms, in the case of `FC(F)(F)c1nc2cc3nc4ccccc4[nH]c3cc2n1` it was 72.2% (inactive); in that of `O=C(CN1CCN(c2ccccn2)CC1)Nc1ccccc1F`, 108% (inactive); in that of `COc1ccc2nc3cccc(OC)c3nc2c1`, 79.2% (inactive). In the case of `CC(=O)[C@@]1(O)CCC2C3CC[C@H]4C[C@@H](O)CC[C@]4(C)C3CC[C@@]21C` (stereo partly drawn), the percent response (superoxide), lower = inhibition was 107% (inactive). Take `Cc1cc2nc3ccc(N(C)C)cc3nc2cc1N`: the percent response (superoxide), lower = inhibition was 82.4% (inactive). Consider `Cc1cc(C)cc(NC(=O)CN2CCN(c3ccccn3)CC2)c1`, for which the percent response (superoxide), lower = inhibition was 95.7% (inactive). In the case of `CCN(CC)C(=O)CSc1nnc(-c2cccc(OC)c2)o1`, the percent response (superoxide), lower = inhibition is 108% (inactive). As to `C=CCOn1c(=O)c(-c2cccs2)[n+]([O-])c2ccccc21`, the percent response (superoxide), lower = inhibition is 83.4% (inactive). In the case of `CCc1nc(NC(C)(C)C)c2cnn(-c3ccccc3)c2n1`, the percent response (superoxide), lower = inhibition is 119% (inactive). On the same count and under the same terms, in the case of `O=C(/C=C/c1cccs1)NC(=S)NNC(=O)Cc1cccs1` it was 132% (inactive). On to `CCC(=Nc1ccccc1O)C1=C(O)CC(c2ccccc2)CC1=O` (stereo not drawn), for which the percent response (superoxide), lower = inhibition was 87.9% (inactive). With `C[C@]12CCC3C(CC[C@H]4C[C@@H](O)CC[C@]34C)C1CC[C@@H]2OC(=O)[C@H](N)CCCCN` (stereo partly drawn), the percent response (superoxide), lower = inhibition was 96.2% (inactive).

As for `C=C1C(O)[C@@H]2O[C@]3(CC[C@H](/C=C/C(C)[C@@H]4CC(C)=CC5(O[C@H](C[C@@](C)(O)C(=O)O)CCC5O)O4)O3)CC[C@H]2O[C@@H]1C(O)CC(C)[C@H]1OC2(CCCCO2)CCC1C` (stereo partly drawn), the percent response (superoxide), lower = inhibition was 84% (inactive). Consider `CN(C)CCNc1ncnc2c1cnn2-c1ccc(Cl)cc1`, for which the percent response (superoxide), lower = inhibition was 97.4% (inactive).

`CCn1c2ccccc2c2n[nH]c(=S)nc21`: the percent response (superoxide), lower = inhibition was 94.7% (inactive). Same read-out and setting: in the case of `Cc1ccc(-c2nn(C(C)(C)C)c3ncnc(N)c23)cc1` it was 44.3% (inactive). Still for that read-out and setting: under `Oc1cccc2nc3ccccc3nc12` stands 129% (inactive); under `COc1ccc2c3c(cccc13)N(C)N=C2C`, 78.1% (inactive); under `Cc1cc(C)c2[nH]c3nc(SCC(=O)O)nnc3c2c1`, 111% (inactive). In the case of `C=CCSc1nnc(-c2ccc([N+](=O)[O-])cc2)o1`, the percent response (superoxide), lower = inhibition is 63.5% (inactive). Take `C[C@]12CCC3C(CC[C@H]4C[C@@H](O)CC[C@]34C)[C@H]1CC[C@H]2O` (stereo partly drawn): the percent response (superoxide), lower = inhibition was 113% (inactive). As to `Cc1ccccc1NC(=O)c1cccc2nc3ccccc3nc12`, the percent response (superoxide), lower = inhibition is 104% (inactive). The same measure, in the same setting: under `COc1cccc2nc3cc(C)c(C)cc3nc12` stands 78.3% (inactive). `CC(=O)O[C@H]1CCC2C3CC[C@H]4[C@@H](O)[C@H](O)CC[C@]4(C)C3CC[C@@]21C` (stereo partly drawn): the percent response (superoxide), lower = inhibition is 93.3% (inactive).

The subject of a further assay is S. cerevisiae aged culture, superoxide DHE fluorescence, 7 d. The assay is described as above.
Settings: not given
As a reminder, the EC50 is the concentration that produces a half-maximal response. Turning to `CNc1ccc2nc3ccccc3[n+](C)c2c1`, the EC50 was 2110 nM. Consider `CCN(CC)c1ccc2nc3ccc(N)cc3[n+](-c3ccccc3)c2c1`, for which the EC50 was 2310 nM. In the case of `[O-][n+]1c2ccccc2[n+]([O-])c2cc(O)ccc21`, the EC50 is 1110 nM.

In the case of `O=C(Nc1cccc(Cl)c1)Nc1ccc2nccnc2c1`, the EC50 is 510 nM. In the case of `COc1ccc2nc3ccccc3nc2c1NC(=O)c1ccccc1Cl`, the EC50 was 60 nM. Take `O=C1c2c(O)ccc(O)c2C(=O)c2c(NCCNCCO)ccc(NCCNCCO)c21`: the EC50 was 6580 nM. With `CCN(CC)C(=O)c1ccc2nc3ccccc3nc2c1`, the EC50 was 790 nM. Still for that read-out and setting: in the case of `O=C(OCc1c(F)cccc1Cl)c1cnc2ccccc2n1` it was 5980 nM; in that of `O=C(O)c1cnc2ccccc2n1`, 13400 nM (inactive). For `Cc1cccc2nc3ccccc3nc12`, the EC50 was 2720 nM. Regarding `C[n+]1c2ccccc2nc2ccc(NCCO)cc21`, the EC50 is 4520 nM. Turning to `CC(=O)Nc1ccc2nc3ccccc3nc2c1`, the EC50 is 170 nM.

On to `Cn1c(=O)[nH]c2nncnc2c1=O`, for which the EC50 is 3400 nM.

Consider `COc1ccc2nc3ccccc3nc2c1`, for which the EC50 was 370 nM and 850 nM. As for `Nc1cc2nc3ccccc3nc2cc1N`, the EC50 is 3500 nM. Regarding `CC(C)(C)n1nc(-c2ccc(F)cc2)c2c(N)ncnc21`, the EC50 was 2440 nM. Still for that read-out and setting: under `O=C(c1cccc2nc3ccccc3nc12)N1CCOCC1` stands 1750 nM; under `C[C@]12CCC3C(CC[C@H]4C[C@H](O)CC[C@]34C)C1C[C@@H](CCCCl)[C@@H]2O` (stereo partly drawn), 530 nM; under `COC(=O)c1cccc2nc3c(C(C)O)cccc3nc12` (stereo not drawn), 910 nM. The same measure, in the same setting: under `CSc1nnc2c3cc(F)ccc3n(C)c2n1` stands 5860 nM; under `COc1ccc2nc3ccccc3nc2c1N`, 1130 nM; under `OCC[n+]1c2ccccc2nc2ccc(N3CCOCC3)cc21`, 2610 nM.

Regarding `CC(C)OC(=O)c1ccc2nc3ccccc3nc2c1`, the EC50 was 12600 nM (inactive). For `CC(C)(C)n1nc(-c2ccc(Cl)cc2)c2c(N)ncnc21`, the concentration giving a half-maximal response (EC50) was 4230 nM.

For `O=C(Nc1ccc2nc3ccccc3nc2c1)c1ccccc1`, the EC50 was 80 nM. As to `C[C@]12CCC3C(CC[C@H]4C[C@H](O)CC[C@]34C)C1CCC2=O` (stereo partly drawn), the EC50 was 30 nM. The same measure, in the same setting: under `C/C(=N\Nc1ncnc2sc(C)c(C)c12)c1ccccn1` stands 10400 nM (inactive).

On to `C[C@@]12C(=O)OC(=O)[C@]1(C)C1CCC2O1`, for which the EC50 is 180 nM. On to `c1ccc2[nH]c3cc4ncnc4cc3nc2c1`, for which the EC50 is 130 nM.

For the compound `C#CCSc1nnc(-c2ccc([N+](=O)[O-])cc2)o1`, the EC50 was 5160 nM. As to `CSc1nnc(-c2ccc([N+](=O)[O-])cc2)o1`, the EC50 was 13100 nM (inactive).

For `CCN(CC)C(=O)c1cccc2nc3ccccc3nc12`, the EC50 was 1520 nM.

For the origin of these results see PubChem BioAssay AID504927 (NMMLSC, 2011).
